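The compound was tested at five concentrations on cells cultured in 96-well plates, with a 48-hour exposure period. Abbreviation: GI50, concentration required for 50% inhibition of growth. TGI marks complete inhibition of growth.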
How the values were obtained:
Assay in all cases: inhibition of tumour cell growth, NCI panel, 48 h
[1] = tested on: M14 melanoma
[2] = tested on: K-562 leukemia
[3] = tested on: SK-MEL-5 melanoma
[4] = tested on: HT29 colon
[5] = tested on: UACC-62 melanoma
[6] = tested on: SF-295 CNS
[7] = tested on: CCRF-CEM leukemia
[8] = tested on: A549 NSCLC
[9] = tested on: OVCAR-4 ovarian
[10] = tested on: BT-549 breast

Row | SMILES | GI50 [1] | TGI [1] | GI50 [2] | GI50 [3] | TGI [3] | GI50 [4] | TGI [4] | GI50 [5] | TGI [5] | GI50 [6] | TGI [6] | GI50 [7] | TGI [7] | GI50 [8] | TGI [8] | GI50 [9] | TGI [9] | GI50 [10] | TGI [10] | TGI [2]
1 | COC(=O)c1ccc2nc(-c3cc4ccccc4n3C)n(CCCCOc3cc4c(cc3OC)C(=O)N3CCC[C@H]3C=N4)c2c1 | 0.713 µM | 2.07 µM | 0.286 µM | 1.21 µM | 2.48 µM | 0.929 µM | 5.49 µM | 0.211 µM | 0.625 µM | 0.667 µM | 4.85 µM | 2.53 µM | > 100 µM | 1.5 µM | 10.3 µM | 1.54 µM | 11.4 µM | 0.284 µM | 1.13 µM | –
2 | CNS(=O)(=O)OCC1OC(n2cnc3cncnc32)C(O)C1O (configuration not stated) | > 100 µM | > 100 µM | > 100 µM | > 100 µM | > 100 µM | > 100 µM | > 100 µM | > 100 µM | > 100 µM | > 100 µM | > 100 µM | > 100 µM | > 100 µM | > 100 µM | > 100 µM | > 100 µM | > 100 µM | > 100 µM | > 100 µM | > 100 µM
3 | CS(=O)(=O)N1CCC(n2c(=O)c(Oc3ccc(F)cc3F)cc3cnc(NC4CCOCC4)nc32)CC1 | > 25 µM | > 25 µM | > 25 µM | > 25 µM | > 25 µM | > 25 µM | > 25 µM | > 25 µM | > 25 µM | > 25 µM | > 25 µM | > 25 µM | > 25 µM | > 25 µM | > 25 µM | > 25 µM | > 25 µM | 24.5 µM | > 25 µM | > 25 µM
4 | Cc1cc(Cl)nc2ccc(Cc3ccc4nc(Cl)cc(C)c4c3)cc12 | – | > 100 µM | – | – | > 100 µM | – | > 100 µM | – | > 100 µM | – | > 100 µM | – | > 100 µM | – | > 100 µM | – | > 100 µM | – | > 100 µM | > 100 µM
5 | O=C(/C=C/C12c3ccccc3C(c3ccccc31)C1C(=O)N(c3ccc(Cl)cc3)C(=O)C12)c1ccccn1 (configuration not stated) | 0.3 µM | 1.19 µM | 0.267 µM | 0.515 µM | 1.21 µM | 0.335 µM | 8.67 µM | 0.279 µM | 0.973 µM | 0.379 µM | 2.03 µM | 0.29 µM | > 100 µM | 0.288 µM | 0.989 µM | 0.478 µM | > 30.9 µM | 0.171 µM | 0.365 µM | > 100 µM
6 | CCCCCCC1N=C(N)N=C(N)N1c1cccc(Cl)c1 (configuration not stated) | 0.668 µM | 15.5 µM | 0.841 µM | 0.474 µM | 13 µM | 0.0514 µM | 7.23 µM | 0.527 µM | 12.3 µM | 0.102 µM | 1.71 µM | 0.442 µM | > 66.8 µM | 0.181 µM | > 44.5 µM | 1.76 µM | 38.2 µM | 0.506 µM | 14.5 µM | 24.6 µM
7 | Cc1ccc(-c2nc3nc(-c4ccc(F)cc4)nc(N4CCNCC4)c3o2)cc1 | 1.92 µM | 3.79 µM | 1.46 µM | 15.4 µM | 29 µM | 1.86 µM | 3.93 µM | 15.4 µM | 29.9 µM | 18.3 µM | 33.9 µM | 1.91 µM | 4.74 µM | 2.1 µM | 4.74 µM | 1.89 µM | 3.5 µM | 13.6 µM | 30.1 µM | 5.44 µM
8 | COc1cc2c3c(n(CCCN4CCNCC4)c(=O)c2cc1OC)-c1cc2c(cc1C3=O)OCO2 | 1.09 µM | 7.31 µM | 0.111 µM | 1.33 µM | 10.5 µM | 0.942 µM | 29.8 µM | 0.997 µM | 7.61 µM | 0.0851 µM | 1.93 µM | 0.0118 µM | 0.389 µM | 0.0393 µM | 0.922 µM | 4.05 µM | 12.4 µM | 1.4 µM | 7.97 µM | 18.3 µM
9 | CCc1ccccc1NC(=O)C(C#N)C1=C(Cl)C(=O)c2ccccc2C1=O (configuration not stated) | – | 21.8 µM | – | – | 29.6 µM | – | 37.9 µM | – | 31.2 µM | – | 52.6 µM | – | > 100 µM | – | 54.7 µM | – | 27.6 µM | – | 71.7 µM | > 100 µM
10 | Cc1ccc([P+](Cc2ccccc2)(c2ccccc2)c2ccccc2)cc1 | 2.78 µM | 16.4 µM | 1.26 µM | 0.904 µM | 2.3 µM | 1.6 µM | 10.5 µM | 1.77 µM | 11.3 µM | 2.36 µM | 7.69 µM | 2.5 µM | 18.9 µM | 3.08 µM | 64.8 µM | 2.62 µM | > 100 µM | 3.31 µM | 14.8 µM | > 100 µM
11 | O=C1Nc2ccccc2/C1=C\c1c(-c2ccccc2)nc2sccn12 | 1.98 µM | 7.61 µM | 0.624 µM | 2.2 µM | 7.89 µM | 3.14 µM | 36.9 µM | 0.798 µM | 9.72 µM | 0.797 µM | 3.24 µM | 0.689 µM | 19.8 µM | 3.5 µM | > 100 µM | 12.6 µM | 62.8 µM | 3.3 µM | 16.9 µM | > 45.8 µM
12 | CCN1CCC(CC(=O)Nc2n[nH]c3nnc(-c4cccc(F)c4F)cc23)CC1 | > 25 µM | > 25 µM | > 25 µM | > 6.37 µM | > 25 µM | 12.4 µM | > 25 µM | > 25 µM | > 25 µM | 18 µM | > 25 µM | > 25 µM | > 25 µM | > 25 µM | > 25 µM | > 25 µM | > 25 µM | > 25 µM | > 25 µM | > 25 µM
13 | Cc1ccc(C)c2c1C(=O)N(c1ccc(F)cc1F)C2=O | > 100 µM | > 100 µM | > 100 µM | – | – | > 100 µM | > 100 µM | > 100 µM | > 100 µM | > 100 µM | > 100 µM | > 100 µM | > 100 µM | > 100 µM | > 100 µM | > 100 µM | > 100 µM | > 100 µM | > 100 µM | > 100 µM
